From patent US20110105472A1, “Diaminopyrimidines as crop protection agents” (Bayer CropScience AG, priority 2008, published 2011)

Assay: logP by HPLC on reversed-phase columns (C 18), method [a], acidic range pH 2.3
Assay type: physicochemical
Conditions: pH 2.3

log p	SMILES
3.09^[a]	Cl.Clc1cccc(Nc2ncc(Cl)c(NC3CCC3)n2)c1 [Compound 2-1]
2.23^[a]	COc1cc(Nc2ncc(Cl)c(NC3CCC3)n2)cc(OC)c1.Cl [Compound 2-3]
2.04^[a]	CC(=O)c1cccc(Nc2ncc(Cl)c(NC3CCC3)n2)c1.Cl [Compound 2-4]

SMILES	log p
Cl.Clc1cnc(Nc2ccccc2)nc1NC1CCC1 [Compound 2-2]	1.97^[a]

Assay: logP by LC-MS, method [b], acidic range pH 2.7
Assay type: physicochemical
Conditions: pH 2.7

log p	SMILES
2.17[b]	OC(c1cccc(Nc2ncc(Br)c(NC3CCC3)n2)c1)C(F)(F)F (stereo not drawn) [Compound 214]
2.73[b]	CCc1cc(Nc2ncc(Cl)c(NC3CCC3)n2)ccc1C [Compound 222]
3.24[b]	CC(=O)c1cccc(Nc2ncc(C(F)(F)F)c(NC3CCC3)n2)c1 [Compound 227]
3.37[b]	CCSc1cccc(Nc2ncc(Br)c(NC3CCC3)n2)c1 [Compound 228]
1.88[b]	N#CCc1ccc(Nc2ncc(Cl)c(NC3CCC3)n2)cc1 [Compound 233]
2.79[b]	C=CCNC(=O)c1ccc(Nc2ncc(C(F)(F)F)c(NC3CCC3)n2)cc1 [Compound 239]
1.91[b]	C=CCNC(=O)c1ccc(Nc2ncc(Cl)c(NC3CCC3)n2)cc1 [Compound 241]
1.85[b]	CCN(C)C(=O)c1ccc(Nc2ncc(Cl)c(NC3CCC3)n2)cc1 [Compound 246]
1.57[b]	CN(C)C(=O)c1cccc(Nc2ncc(Cl)c(NC3CCC3)n2)c1 [Compound 247]
1.24[b]	O=C(c1ccc(Nc2ncc(Cl)c(NC3CCC3)n2)cc1)N1CCOCC1 [Compound 249]
2.67[b]	CCc1cccc(Nc2ncc(Cl)c(NC3CCC3)n2)c1 [Compound 251]
3.67[b]	CC(C)(C)c1cccc(Nc2ncc(Br)c(NC3CCC3)n2)c1 [Compound 254]
1.98[b]	CC(=O)CCc1cccc(Nc2ncc(Cl)c(NC3CCC3)n2)c1 [Compound 256]
4.98[b]	CC(C)(C)c1cccc(Nc2ncc(C(F)(F)F)c(NC3CCC3)n2)c1 [Compound 259]
2.76[b]	CS(=O)(=O)c1cccc(Nc2ncc(C(F)(F)F)c(NC3CCC3)n2)c1 [Compound 264]
2.07[b]	CS(=O)(=O)c1cccc(Nc2ncc(Br)c(NC3CCC3)n2)c1 [Compound 265]
1.33[b]	O=C1Cc2cc(Nc3ncc(Cl)c(NC4CCC4)n3)ccc2N1 [compound 7]
1.55[b]	O=c1[nH]c2ccc(Nc3ncc(Cl)c(NC4CCC4)n3)cc2o1 [compound 8]
2.59[b]	O=C1CCc2cc(Nc3ncc(Br)c(NC4CCC4)n3)ccc21 [compound 9]
2.63[b]	O=c1oc2ccc(Nc3ncc(Br)c(NC4CCC4)n3)cc2s1 [compound 11]
1.85[b]	CN1C(=O)COc2ccc(Nc3ncc(Br)c(NC4CCC4)n3)cc21 [compound 14]
1.78[b]	O=S1(=O)Cc2ccc(Nc3ncc(Br)c(NC4CCC4)n3)cc2C1 [compound 20]

log p	SMILES
2.25[b]	O=C1NC(=O)c2cc(Nc3ncc(Br)c(NC4CCC4)n3)ccc21 [compound 22]
2.92[b]	N#Cc1cnc(Nc2ccccc2)nc1NC1CCC1 [compound 29]
1.62[b]	O=C1CCC(=O)N1c1ccc(Nc2ncc(Br)c(NC3CCC3)n2)cc1 [compound 34]
1.27[b]	Oc1ccc(Nc2ncc(Br)c(NC3CCC3)n2)cc1 [compound 37]
2.06[b]	O=C(Nc1ccc(Nc2ncc(Br)c(NC3CCC3)n2)cc1)OCCCl [compound 43]
3.18[b]	Brc1ccc(Nc2ncc(Br)c(NC3CCC3)n2)cc1 [compound 67]
2.99[b]	Clc1ccc(Nc2ncc(Br)c(NC3CCC3)n2)cc1 [compound 69]
2.46[b]	N#Cc1cccc(Nc2ncc(Cl)c(NC3CCC3)n2)c1 [compound 107]
3.59[b]	FC(F)(F)Oc1cccc(Nc2ncc(Cl)c(NC3CCC3)n2)c1 [compound 112]
2.09[b]	CS(=O)(=O)c1ccc(Nc2ncc(Cl)c(NC3CCC3)n2)cc1 [compound 113]
2.53[b]	CN(C)S(=O)(=O)c1ccc(Nc2ncc(Cl)c(NC3CCC3)n2)cc1 [compound 114]
3.22[b]	CSc1ccc(Nc2ncc(Cl)c(NC3CCC3)n2)cc1Cl [compound 115]
2.09[b]	O=C(Nc1ccc(Nc2ncc(Cl)c(NC3CCC3)n2)cc1)C(F)(F)F [compound 121]
1.87[b]	CC1(C(=O)Nc2ccc(Nc3ncc(Cl)c(NC4CCC4)n3)cc2)CC1 [compound 122]
1.8[b]	C=C(C)C(=O)Nc1cccc(Nc2ncc(Cl)c(NC3CCC3)n2)c1 [compound 124]
1.5[b]	CNC(=O)c1cccc(Nc2ncc(Cl)c(NC3CCC3)n2)c1 [compound 127]
2.3[b]	O=S(=O)(c1cccc(Nc2ncc(Cl)c(NC3CCC3)n2)c1)N1CCCCC1 [compound 130]
2.26[b]	CC(=O)c1ccc(Nc2ncc(Cl)c(NC3CCC3)n2)cc1 [compound 131]
1.59[b]	O=C1OCCN1c1ccc(Nc2ncc(Cl)c(NC3CCC3)n2)cc1 [compound 132]
1.66[b]	O=C1CCCN1c1ccc(Nc2ncc(Cl)c(NC3CCC3)n2)cc1 [compound 133]
1.33[b]	O=C1NC(=O)C(c2ccc(Nc3ncc(Cl)c(NC4CCC4)n3)cc2)N1 (stereo not drawn) [compound 134]
1.8[b]	CCOC(=O)Nc1ccc(Nc2ncc(Cl)c(NC3CCC3)n2)cc1 [compound 136]

log p	SMILES
3.98[b]	Fc1cc(F)cc(Nc2ncc(Br)c(NC3CCC3)n2)c1 [compound 144]
2.65[b]	CC(=O)c1ccc(Nc2ncc(Br)c(NC3CCC3)n2)cc1 [compound 145]
1.8[b]	CCOC(=O)Nc1ccc(Nc2ncc(Br)c(NC3CCC3)n2)cc1O [compound 151]
2.84[b]	COC(=O)c1ccc(Nc2ncc(Br)c(NC3CCC3)n2)cc1 [compound 158]
3.1[b]	FC(F)C(F)(F)Oc1ccc(Nc2ncc(Br)c(NC3CCC3)n2)cc1 [compound 159]
4.32[b]	CCCCC(=O)Oc1ccc(Nc2ncc(Br)c(NC3CCC3)n2)cc1 [compound 161]
2.7[b]	CC(=O)N(c1ccc(Nc2ncc(Br)c(NC3CCC3)n2)cc1)C1CCCCC1 [compound 163]
2.46[b]	O=C(Nc1cccc(Nc2ncc(Br)c(NC3CCC3)n2)c1)c1ccccc1 [compound 168]
1.83[b]	CC(C)C(=O)Nc1ccc(Nc2ncc(Br)c(NC3CCC3)n2)cc1 [compound 169]
3.37[b]	FC(F)C(F)(F)Oc1cccc(Nc2ncc(Br)c(NC3CCC3)n2)c1 [compound 170]
4.15[b]	FC(F)(F)Oc1cccc(Nc2ncc(Br)c(NC3CCC3)n2)c1 [compound 182]
3.73[b]	FC(F)(F)Oc1ccc(Nc2ncc(Br)c(NC3CCC3)n2)cc1 [compound 183]
2[b]	CC1(C(=O)Nc2ccc(Nc3ncc(Br)c(NC4CCC4)n3)cc2)CC1 [compound 189]
4.32[b]	O=S(=O)(c1ccc(Nc2ncc(Br)c(NC3CCC3)n2)cc1)C(F)(F)F [compound 193]
2.39[b]	CCC(=O)c1cc(Nc2ncc(Br)c(NC3CCC3)n2)ccc1O [compound 194]
1.47[b]	Cc1cc(O)ccc1Nc1ncc(Br)c(NC2CCC2)n1 [compound 198]
2.51[b]	O=C(Nc1cccc(Nc2ncc(Br)c(NC3CCC3)n2)c1)Oc1ccccc1 [compound 199]
0.71[b]	Clc1cnc(Nc2ccc(NC3CC3)cc2)nc1NC1CCC1 [compound 207]
1.18[b]	CNc1ccc(Nc2ncc(Br)c(NC3CCC3)n2)cc1 [compound 213]
3.49[b]	Clc1cnc(Nc2ccc(I)cc2)nc1NC1CCC1 [compound 230]
3.36[b]	CC1(Nc2nc(Nc3ccccc3)ncc2C(F)(F)F)CCC1 [compound 232]
3.26[b]	CC(C)(C)c1cccc(Nc2ncc(Cl)c(NC3CCC3)n2)c1 [compound 255]

SMILES	log p
OC(c1cccc(Nc2ncc(Cl)c(NC3CCC3)n2)c1)C(F)(F)F (stereo not drawn) [Compound 218]	2.04[b]
N#CCc1cc(Nc2ncc(Br)c(NC3CCC3)n2)ccc1F [Compound 219]	2.2[b]
N#CCc1cccc(Nc2ncc(Br)c(NC3CCC3)n2)c1 [Compound 220]	2.12[b]
O=C(c1ccc(Nc2ncc(C(F)(F)F)c(NC3CCC3)n2)cc1)N1CCCCC1 [Compound 223]	3.31[b]
Cc1cccc(Nc2ncc(Br)c(NC3CCC3)n2)c1 [Compound 224]	2.55[b]
CC(C)c1cccc(Nc2ncc(C(F)(F)F)c(NC3CCC3)n2)c1 [Compound 225]	4.61[b]
N#CCc1cccc(Nc2ncc(C(F)(F)F)c(NC3CCC3)n2)c1 [Compound 226]	3.01[b]
Brc1cnc(Nc2ccccc2)nc1NC1CCC1 [Compound 229]	2.18[b]
Cc1cccc(Nc2ncc(Cl)c(NC3CCC3)n2)c1 [Compound 231]	2.33[b]
CN1CCN(c2cccc(Nc3ncc(Cl)c(NC4CCC4)n3)c2)C1=O [Compound 237]	1.66[b]
COc1cccc(Nc2ncc(C(F)(F)F)c(NC3CCC3)n2)c1 [Compound 238]	3.48[b]
CN(C)C(=O)c1ccc(Nc2ncc(Cl)c(NC3CCC3)n2)cc1 [Compound 240]	1.6[b]
N#CCc1cccc(Nc2ncc(Cl)c(NC3CCC3)n2)c1 [Compound 242]	1.97[b]
CC(C)c1cccc(Nc2ncc(Cl)c(NC3CCC3)n2)c1 [Compound 243]	3.1[b]
CC(=O)Cc1ccc(Nc2ncc(Cl)c(NC3CCC3)n2)cc1 [Compound 244]	1.75[b]
CCN(CC)C(=O)c1cccc(Nc2ncc(Br)c(NC3CCC3)n2)c1 [Compound 252]	2.26[b]
CC(=O)CCc1cccc(Nc2ncc(Br)c(NC3CCC3)n2)c1 [Compound 253]	2.04[b]
O=S1(=O)CCCN1c1cccc(Nc2ncc(Cl)c(NC3CCC3)n2)c1 [Compound 257]	1.74[b]
O=S1(=O)CCCN1c1cccc(Nc2ncc(Br)c(NC3CCC3)n2)c1 [Compound 258]	2.25[b]
CNc1cccc(Nc2ncc(Cl)c(NC3CCC3)n2)c1 [Compound 260]	1.49[b]
